The record followed here is PMC4410478, “Larvicidal activity and possible mode of action of four flavonoids and two fatty acids identified in Millettia pinnata seed toward three mosquito species” (Parasites & Vectors, 2015).

The subject of assay [1] is octopamine sensitive adenylate cyclase, whole body homogenate from third instar A. aegypti larvae. Description: Determination of cyclic AMP level (octopamine sensitive adenylate cyclase activity). It counts as biochemical, Aedes aegypti. Particulars: 100 μM test compound; octopamine 100 μM alone as comparator. Here is the method: The in vitro octopamine sensitive adenylate cyclase activity was investigated according to the modified method of Pratt and Pryor [35]. The whole bodies of 75 third instar A. aegypti larvae (106.2 mg) were homogenized in 500 μL of 2 mM Tris-maleate buffer (pH 7.4) containing 0.8 mM ethylene glycol tetraacetic acid (EGTA). Adenylate cyclase activity was measured using a cAMP Biotrak Enzyme immunoassay system according to the manufacturer’s instructions. The assay was conducted in a total volume of 100 μL containing 80 mM Tris-maleate buffer, 5 mM theophylline (to inhibit phosphodiesterase activity), 2 mM MgSO4, 0.5 mM adenosine triphosphate (ATP), 0.2 mM EGTA, 50 μL of whole body homogenate (equivalent to 4.22 μg protein), and 1 μL of the test compounds in Tris-maleate buffer containing 0.2% ethanol. After incubation for 5 min at 20°C, the reaction was initiated by the addition of ATP. Incubation was carried out at 30°C for 3 min in a shaking water bath. The reaction was terminated by boiling for 2 min, and then the assay tube was cooled and centrifuged for 10 min at 8000 g. The 50 μL aliquots of the supernatant were assayed for cAMP level.
The polystyrene microplates (1 strip of 8 wells) coated with a goat anti-mouse polyclonal antibody were used. Fifty microliters of primary antibody (mouse monoclonal antibody) solution was added to each well except the blank wells (or the nonspecific binding (NSB) wells). The wells covered with the adhesive strip were incubated for 1 h at 25°C in a shaking incubator (480 rpm), followed by four times washing steps, each with 400 μL of wash buffer. The 50 μL of the test samples for cAMP determination and cAMP standard were added to wells. Control, blank (NSB), and zero standard wells were added with 50 μL of the diluent RD5-55 buffer. The 50 μL of cAMP conjugate (horseradish peroxidase-labeled cAMP) was then added to wells. The plate covered with a new adhesive strip was incubated for 2 h at 25°C on the shaker, followed by the four times washing steps. Then, 200 μL of substrate solution (equal volume of stabilized hydrogen peroxide and stabilized chromogen) was added to each well, and the test plate was incubated for 30 min at 25°C on the benchtop in darkness. Finally, the reaction was stopped by adding 100 μL of stop solution (2 N sulfuric acid) to each well. Optical densities at 450 and 540 nm were measured using the VersaMax microplate reader. The readings at 540 nm were subtracted from the readings at 450 nm. The cAMP concentrations were expressed as nmol/μg protein. Results were expressed as mean ± SE of duplicate samples of three independent experiments.

The target in assay [2] is AChE from A. aegypti larvae (Aedes aegypti, UniProt A4GND7). Description: Acetylcholinesterase assay (microplate). The settings on record: acetylthiocholine iodide hydrolysis at 30°C and pH 8.0. It counts as biochemical. As to the method:
Third instar larvae of A. aegypti was used in all experiments. […] After filtering through cheese cloth, the homogenate was centrifuged at 1000 g at 4°C for 5 min. The supernatant was used as the acetylcholinesterase (AChE) preparation. Protein content was determined by the Bradford dye method using BSA as the standard. Microplate AChE assay was carried out following the method of Hemingway et al. adapted from Ellman et al.. The reaction mixture consisted of 50 μL of the crude enzyme preparation, 150 μL of 0.1 M phosphate buffer, 20 μL of 3 mM DTNB in phosphate buffer (pH 7.0), and 1 μL of various concentrations of each test compound in ethanol. The reaction mixture was incubated at 30°C for 5 min and 20 μL of 32 mM ATChI was then added to the mixture. After incubation for 30 min, the reaction was stopped by adding 20 μL of 5 mM eserine salicylate. The absorbance was recorded at 412 nm using a VersaMax microplate reader (Molecular Devices, Sunnyvale, CA). Results were expressed as mean ± SE of triplicate samples of three independent experiments.
IC50 values and cAMP levels were subjected to ANOVA. […] Means ± SE of untransformed data are reported. Concentration–mortality data were subjected to probit analysis.

Assay [3] has as its system third instar Aedes aegypti larvae. Put plainly: direct-contact mortality bioassay. Particulars: Aedes aegypti, 24 h, read-out: LC50, mg/L (95% CL). Here is the method: (§1) A direct-contact mortality bioassay was used to evaluate the toxicity of all compounds to third instar larvae from the susceptible and wild mosquito populations. Each compound in acetone (for karanjin) or methanol (for the other compounds) was suspended in distilled water with Triton X-100 (20 μL/L). Groups of 20 mosquito larvae were separately put into paper cups (270 mL) containing each test compound solution (250 mL). The OPs temephos and fenthion served as positive controls and were similarly formulated. Negative controls consisted of the acetone– or methanol–Triton X-100 solution in distilled water. […] Treated and control (acetone– or methanol–Triton X-100 solution only) larvae were held under the same conditions as those used for colony maintenance. […] All treatments were replicated three times using 20 larvae per replicate.
(§2) In separate experiments, the efficacy of the 12 experimental liquid formulations was evaluated, as stated previously. Groups of 20 mosquito larvae were separately put into paper cups containing each test solution. Temephos 200 g/L EC served as a positive control. Negative controls consisted of the ethoxylated castor oil + polyoxyethylene dodecyl mono ether solution in distilled water or water. Mortalities were recorded, as stated previously. All treatments were replicated three times using 20 larvae per replicate.
(§3) Data were corrected for control mortality using Abbott’s formula [36]. The percentages of mortality were transformed to arcsine square-root values for analysis of variance (ANOVA). […] IC50 values and cAMP levels were subjected to ANOVA. The Bonferroni multiple-comparison method was used for comparison of means. Means ± SE of untransformed data are reported. Concentration–mortality data were subjected to probit analysis.

The subject of assay [4] is third instar Culex pipiens pallens larvae. Put plainly: direct-contact mortality bioassay. Particulars: Culex pipiens, 24 h, read-out: LC50, mg/L (95% CL). As to the method: as §1, §2, §3
Assay [5] deals with third instar larvae from wild Aedes albopictus. Put plainly: direct-contact mortality bioassay. Particulars: Aedes albopictus, 24 h, read-out: LC50, mg/L (95% CL). As to the method: as §1, §2, §3

Converted amounts (≈) assume the structure as drawn.

AChE from A. aegypti larvae, sequence (A4GND7 37-679): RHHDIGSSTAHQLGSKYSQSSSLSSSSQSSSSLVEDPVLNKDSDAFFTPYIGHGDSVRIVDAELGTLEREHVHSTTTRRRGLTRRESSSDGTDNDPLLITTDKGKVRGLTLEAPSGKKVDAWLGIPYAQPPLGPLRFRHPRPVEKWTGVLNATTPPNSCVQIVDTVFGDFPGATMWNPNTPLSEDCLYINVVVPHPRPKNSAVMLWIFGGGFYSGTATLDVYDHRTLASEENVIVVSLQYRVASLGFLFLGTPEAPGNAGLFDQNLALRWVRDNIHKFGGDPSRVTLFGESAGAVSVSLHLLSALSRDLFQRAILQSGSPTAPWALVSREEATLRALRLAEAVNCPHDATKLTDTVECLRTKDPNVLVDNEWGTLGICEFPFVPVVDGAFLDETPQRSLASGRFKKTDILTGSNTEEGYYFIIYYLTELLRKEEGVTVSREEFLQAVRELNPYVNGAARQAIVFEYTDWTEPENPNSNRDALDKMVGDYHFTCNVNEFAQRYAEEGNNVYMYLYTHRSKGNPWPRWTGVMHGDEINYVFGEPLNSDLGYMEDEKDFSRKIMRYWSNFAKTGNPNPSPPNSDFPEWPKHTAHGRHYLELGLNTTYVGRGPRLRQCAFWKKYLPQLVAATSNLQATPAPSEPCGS

For `CCCCCCCCCCCCCCCC(=O)O` [Palmitic acid (4), palmitic acid], the “cAMP level compared with that induced by octopamine” value in assay [1] is on record as “significantly lower than that induced by octopamine”. In assay [2], the “AChE inhibition IC50” value was “lowest of any of the compounds examined”. Moreover, the LC50 in assay [3] worked out at 43 mg/L (≈ 168 µM); in assay [4] it was 34.5 mg/L (≈ 135 µM); in assay [5] it was 85.6 mg/L (≈ 334 µM).
